The values that follow come from patent publication US7855166B2, “Sulfonylamino(thio)carbonyl compounds” (Bayer Cropscience GmbH, priority 2005, dated 2010).

Assay [1] has as its system weed plants such as Sinapis alba, Chrysanthemum segetum, Avena sativa, Stellaria media, Echinochloa crus-galli, Lolium multiflorum, Setaria viridis, Abutilon …. Description: Pre-emergence effect on weeds (greenhouse pot test, visual scoring). Format: in vivo. The settings on record: applied pre-emergence at a rate of 0.3 kg or less of active substance per hectare; scored after 3 to 4 weeks in comparison to untreated controls.

For assay [2], the system named is weed plants such as Sinapis alba, Echinochloa crus-galli, Lolium multiflorum, Chrysanthemum segetum, Setaria viridis, Abutilon theophrasti, Amaranthus …. Put plainly: Post-emergence effect on weeds (greenhouse pot test, visual scoring). Format: in vivo. The note with it: applied post-emergence (three-leaf stage) at a rate of 0.3 kg or less of active substance per hectare; scored after about 3 to 4 weeks in comparison to untreated controls.

On to `CCCOc1nn(C(=O)NS(=O)(=O)c2c(F)cccc2I)c(=O)n1C` [Compound 1.023], for which the “herbicidal action against weed plants (visual scoring of plant damage or emergence damage)” value in assay [1] is reported as “very good herbidical action”. In addition, in assay [2], the “herbicidal action against weed plants (effect scored visually)” value is reported as “very good herbicidal action”.
The corresponding values for `CCOc1nn(C(=O)NS(=O)(=O)c2c(I)cccc2OCC2CC2)c(=O)n1C` [Compound 1.349] are “very good herbidical action” and “very good herbicidal action”.
`COc1nn(C(=O)NS(=O)(=O)c2c(I)cccc2OC(C)C(F)(F)F)c(=O)n1C1CC1` (stereo not shown) [Compound 1.529]: in assay [1], the “herbicidal action against weed plants (visual scoring of plant damage or emergence damage)” value was “very good herbidical action”. Besides, in assay [2], the “herbicidal action against weed plants (effect scored visually)” value was “very good herbicidal action”.
The matching figures for `CCCOc1nn(C(=O)NS(=O)(=O)c2c(I)cccc2OC(C)C)c(=O)n1C1CC1` [Compound 1.264]: “very good herbidical action” and “very good herbicidal action”.
The matching figures for `CCCCOc1cccc(I)c1S(=O)(=O)NC(=O)n1nc(OC)n(C2CC2)c1=O` [Compound 1.278]: “very good herbidical action” and “very good herbicidal action”.
The matching figures for `CCCOc1nn(C(=O)NS(=O)(=O)c2ccc(CCC)cc2I)c(=O)n1C1CC1` [Compound 1.882]: “very good herbidical action” and “very good herbicidal action”.
`CC(C)Oc1nn(C(=O)NS(=O)(=O)c2c(F)cccc2I)c(=O)n1C` [Compound 1.024]: in assay [1], the “herbicidal action against weed plants (visual scoring of plant damage or emergence damage)” value is “very good herbidical action”. In addition, the “herbicidal action against weed plants (effect scored visually)” value in assay [2] was “very good herbicidal action”.
The matching figures for `COc1nn(C(=O)NS(=O)(=O)c2c(I)cccc2OCC(F)(F)C(F)(F)F)c(=O)n1C` [Compound 1.544]: “very good herbidical action” and “very good herbicidal action”.
`COc1nn(C(=O)NS(=O)(=O)c2c(I)cccc2OC(C)C)c(=O)n1C1CC1` [Compound 1.258]: the “herbicidal action against weed plants (visual scoring of plant damage or emergence damage)” value in assay [1] is given as “very good herbidical action”. Moreover, the “herbicidal action against weed plants (effect scored visually)” value in assay [2] is listed as “very good herbicidal action”.
As to `COc1nn(C(=O)NS(=O)(=O)c2cc(C(F)(F)F)ccc2I)c(=O)n1C` [Compound 1.835], the “herbicidal action against weed plants (visual scoring of plant damage or emergence damage)” value in assay [1] is listed as “very good herbidical action”. Moreover, the “herbicidal action against weed plants (effect scored visually)” value in assay [2] was “very good herbicidal action”.
The matching figures for `COc1nn(C(=O)NS(=O)(=O)c2ccc(Cl)cc2I)c(=O)n1C` [Compound 1.869]: “very good herbidical action” and “very good herbicidal action”.
